Experimental data reported in patent US20240197761A1, “FUCOSYLATION AND IMMUNE MODULATION IN CANCER” (H. LEE MOFFITT CANCER CENTER AND RESEARCH INSTITUTE, INC., priority 2021, published 2024).

Legend:
HLA-DRB1 in WM793 cells = experiment: Immunofluorescent subcellular localization of HLA-DRB1; assay type: cell-based, human; conditions: vs. vehicle (DMSO)
Description: FIGS. 18A-18F show N-linked fucosylation of HLA-DRB1 at N48 regulates its cell surface localization and is required for tumor suppression and increased TIL abundance. (a) (upper) Amino acid sequence alignments showing conservation of predicted N- and O-linked fucosylation sites in human HLA-DRB1 (N48 and T129) and mouse H2EB1 (N46 and T147). Structural modeling of the HLA-DRB1:HLA-DM (lower left) and CD4:HLA-DRB1:TCR (lower right) complexes. Potential glycosylation sites, N48 and T129, of HLA-DR1 beta chain are shown as sticks. CD4 (cyan), HLA-DRB1 (yellow), antigen peptide (magenta), and TCR (green)(lower right). (b) HLA-DRB1 peptide fragment identified by nano-LC/MS to be fucosylated on N48, with predicted HexNAc(4)Hex(3)Fuc(1) glycan structure shown above. (c) Lectin pull down (LPD) and IB analyses of EV and V5-tagged wild-type HLA-DRB1 (WT)-, HLA-DRB1 N48G (N48G)-, and HLA-DRB1 T129A (T129A)-expressing WM793 cells. (d) DMSO- or fucosyltransferase inhibitor (FUTi)-treated WM793 cells immunofluorescently stained for endogenous HLA-DRB1, KDEL (ER marker), and DAPI (20× magnification). […]

[1] = system: fucosylated HLA-DRB1 in WM793 cells; experiment: Lectin-mediated proximity ligation assay (L-PLA) of fucosylated HLA-DRB1; assay type: cell-based, human; conditions: vs. DMSO
Description: FIGS. 22A-221 show Schematic of L-PLA staining and verification of fucosylated HLA-DRB1 staining, which is weakly associated with tumor peripheral CD4+T cells; and the effects of L-fucose on tumor PD-L1 expression (a) Schematic of lectin-mediated proximity ligation analysis (L-PLA) using fucosylated HLA-DRB1 (fuco-HLA-DRB1) as an example. We stained for (i) HLA-DRB1 using […]-HLA-DRB1 followed by (+) oligo-conjugated PLA secondary and (ii) fucosylated glycan using biotinylated (“B”) AAL lectin followed by D-biotin followed by (−) oligo-conjugated PLA secondary. Ligated PLA oligos were subjected to rolling circle amplification PCR (RCA PCR), giving rise to fluorescent punctae. […] Single melanoma marker, AAL-FITC, and HLA-DRB1 channels are shown in white for clearer visualization. […] (d) FFPE melanoma tissues were subjected to L-PLA HLA-DRB1 staining ±500 mM L-fucose wash and subsequent staining with melanoma marker (MART1+SI10 cocktail), and DAPI. Single melanoma marker and fuco-HLA-DRB1 channels are shown in white for clear visualization. Total loss of fuco-HLA-DRB1 signal in the +L-fucose wash tissue confirms the fucose-specificity of L-PLA for fuco-HLA-DRB1. […]
Laboratories (Burlingame, CA)), on coverslips overnight in 4° C. […] Microscopy images were acquired using a Keyence BZ-X710, and images were process and analyzed using FIJI (NIH).

CC(=O)OC1O[C@@H](C)[C@@H](OC(C)=O)[C@@H](OC(C)=O)[C@@H]1F (some centres unmarked) [FUTi, 2F-peracteyl-fucose, reference compound]
subcellular localization of HLA-DRB1 (HLA-DRB1 in WM793 cells): dimmer, more central, endoplasmic reticulum-co-localization of HLA-DRB1 | L-PLA staining of endogenous fucosylated HLA-DRB1 [1]: lost
